Results: PubChem BioAssay (NCI)
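Each compound was tested at five concentrations against cells in 96-well plates for 48 hours. The concentration for 50% growth inhibition is given as GI50. TGI: concentration producing complete growth inhibition.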

How the values were obtained:
Experiment in all cases: growth of human tumour cells (NCI), 48 h
A549 NSCLC = system: A549 NSCLC
RPMI-8226 leukemia = system: RPMI-8226 leukemia
SK-OV-3 ovarian = system: SK-OV-3 ovarian
UACC-257 melanoma = system: UACC-257 melanoma
K-562 leukemia = system: K-562 leukemia
MALME-3M melanoma = system: MALME-3M melanoma
HT29 colon = system: HT29 colon
SNB-75 CNS = system: SNB-75 CNS
HCT-15 colon = system: HCT-15 colon
SNB-19 CNS = system: SNB-19 CNS

SMILES: C[C@]12CC[C@@H]3c4ccc(O)cc4CC[C@H]3[C@@H]1CC(Cc1ccccc1)(Cc1ccccc1)C2=O
- GI50 (A549 NSCLC): 18.5 µM
- TGI (A549 NSCLC): 48.4 µM
- GI50 (RPMI-8226 leukemia): 5.57 µM
- TGI (RPMI-8226 leukemia): 23.5 µM
- GI50 (SK-OV-3 ovarian): 21.2 µM
- TGI (SK-OV-3 ovarian): 37.4 µM
- GI50 (UACC-257 melanoma): 18.4 µM
- TGI (UACC-257 melanoma): 39.5 µM
- GI50 (K-562 leukemia): 16.2 µM
- TGI (K-562 leukemia): > 100 µM
- GI50 (MALME-3M melanoma): 23.5 µM
- TGI (MALME-3M melanoma): 48.9 µM
- GI50 (HT29 colon): 6.04 µM
- TGI (HT29 colon): 20.6 µM
- GI50 (SNB-75 CNS): 16.7 µM
- TGI (SNB-75 CNS): 34.5 µM
- GI50 (HCT-15 colon): 13.9 µM
- TGI (HCT-15 colon): 28.7 µM
- GI50 (SNB-19 CNS): 18 µM
- TGI (SNB-19 CNS): 34.5 µM

SMILES: Cn1c(=O)nc2n(-c3ccc(F)c(F)c3)c3ccccc3nc-2c1=O
- TGI (A549 NSCLC): 60.5 µM
- TGI (RPMI-8226 leukemia): 72.2 µM
- TGI (SK-OV-3 ovarian): > 100 µM
- TGI (UACC-257 melanoma): 20.1 µM
- TGI (K-562 leukemia): 41.2 µM
- TGI (MALME-3M melanoma): 24.3 µM
- TGI (HT29 colon): 16 µM
- TGI (SNB-75 CNS): 75 µM
- TGI (HCT-15 colon): 20.4 µM
- TGI (SNB-19 CNS): 44.9 µM

SMILES: CON1C(=O)C2(CCCCC2)C(=O)C12C=CC(C)CC2 (stereo not given)
- TGI (A549 NSCLC): > 100 µM
- TGI (RPMI-8226 leukemia): > 100 µM
- TGI (SK-OV-3 ovarian): > 100 µM
- TGI (UACC-257 melanoma): > 100 µM
- TGI (K-562 leukemia): > 100 µM
- TGI (MALME-3M melanoma): > 100 µM
- TGI (HT29 colon): > 100 µM
- TGI (SNB-75 CNS): > 100 µM
- TGI (HCT-15 colon): > 100 µM
- TGI (SNB-19 CNS): > 100 µM

SMILES: [Mn+3].[O-][Cl+3]([O-])([O-])O.[O-]c1ccccc1C=NCCN1CC1.[O-]c1ccccc1C=NCCN1CC1
- GI50 (A549 NSCLC): 38.6 µM
- TGI (A549 NSCLC): > 100 µM
- GI50 (RPMI-8226 leukemia): 1.36 µM
- TGI (RPMI-8226 leukemia): 9.91 µM
- GI50 (SK-OV-3 ovarian): 35.2 µM
- TGI (SK-OV-3 ovarian): > 100 µM
- GI50 (UACC-257 melanoma): 18.1 µM
- TGI (UACC-257 melanoma): 46.2 µM
- GI50 (K-562 leukemia): 20.5 µM
- TGI (K-562 leukemia): 42.4 µM
- GI50 (MALME-3M melanoma): 19.7 µM
- TGI (MALME-3M melanoma): 39.9 µM
- GI50 (HT29 colon): 20.2 µM
- TGI (HT29 colon): 44.1 µM
- GI50 (SNB-75 CNS): 25.6 µM
- TGI (SNB-75 CNS): 70.1 µM
- GI50 (HCT-15 colon): 4.15 µM
- TGI (HCT-15 colon): 18.3 µM
- GI50 (SNB-19 CNS): 44.6 µM
- TGI (SNB-19 CNS): > 100 µM

SMILES: CCOc1ccc(Nc2ccnc3cc(Cl)ccc23)cc1
- GI50 (A549 NSCLC): > 100 µM
- TGI (A549 NSCLC): > 100 µM
- GI50 (RPMI-8226 leukemia): > 100 µM
- TGI (RPMI-8226 leukemia): > 100 µM
- GI50 (SK-OV-3 ovarian): > 100 µM
- TGI (SK-OV-3 ovarian): > 100 µM
- GI50 (UACC-257 melanoma): > 100 µM
- TGI (UACC-257 melanoma): > 100 µM
- GI50 (K-562 leukemia): 32.3 µM
- TGI (K-562 leukemia): > 100 µM
- GI50 (MALME-3M melanoma): > 100 µM
- TGI (MALME-3M melanoma): > 100 µM
- GI50 (HT29 colon): 3.88 µM
- TGI (HT29 colon): > 100 µM
- GI50 (SNB-75 CNS): 17 µM
- TGI (SNB-75 CNS): 51.2 µM
- GI50 (HCT-15 colon): 4.38 µM
- TGI (HCT-15 colon): > 100 µM
- GI50 (SNB-19 CNS): > 100 µM
- TGI (SNB-19 CNS): > 100 µM

SMILES: C#Cc1cccc(Nc2nc(C)nc3cc(NC(=O)CCl)ccc23)c1
- GI50 (A549 NSCLC): 4.68 µM
- TGI (A549 NSCLC): 8.66 µM
- GI50 (RPMI-8226 leukemia): 1.12 µM
- TGI (RPMI-8226 leukemia): 4.75 µM
- GI50 (SK-OV-3 ovarian): 3.81 µM
- TGI (SK-OV-3 ovarian): 7.31 µM
- GI50 (UACC-257 melanoma): 4.07 µM
- TGI (UACC-257 melanoma): 7.62 µM
- GI50 (K-562 leukemia): 0.953 µM
- TGI (K-562 leukemia): 3.65 µM
- GI50 (MALME-3M melanoma): 0.465 µM
- TGI (MALME-3M melanoma): 1.11 µM
- GI50 (HT29 colon): 1.06 µM
- TGI (HT29 colon): 4.15 µM
- GI50 (SNB-75 CNS): 1.09 µM
- TGI (SNB-75 CNS): 4.34 µM
- GI50 (HCT-15 colon): 0.687 µM
- TGI (HCT-15 colon): 2.64 µM
- GI50 (SNB-19 CNS): 1.29 µM
- TGI (SNB-19 CNS): 4.29 µM

SMILES: Cc1ccc(NC(=O)C(=O)C2C(=O)NC(=O)NC2=O)c(C)c1
- TGI (A549 NSCLC): > 100 µM
- TGI (RPMI-8226 leukemia): > 100 µM
- TGI (SK-OV-3 ovarian): > 100 µM
- TGI (UACC-257 melanoma): > 100 µM
- TGI (K-562 leukemia): > 100 µM
- TGI (MALME-3M melanoma): > 100 µM
- TGI (HT29 colon): > 100 µM
- TGI (SNB-75 CNS): > 100 µM
- TGI (HCT-15 colon): > 100 µM
- TGI (SNB-19 CNS): > 100 µM
